Read-outs that look alike come from different tables or passages of the source.
How the values were obtained:
[1] = target: thermostable luciferase (Luc146-1H2) (Photuris pensylvanica, UniProt Q27757); assay type: biochemical, Photuris pennsylvanica
[2] = target: wild type luciferase from Photinus pyralis (QuantiLum recombinant luciferase) (Photinus pyralis, UniProt P08659); assay type: biochemical
[3] = No PPi, 1 mM AMP, 2 mM 5′AMPS, 2 mM ADP S, 5 mM dATP, ATP 0 to 1.67 mM
[4] = with 50 μM PPi, 1 mM AMP, 2 mM 5′AMPS, 2 mM ADP S, 5 mM dATP, ATP 0 to 1.67 mM
[5] = NT (no inhibitor), metal salt replacing MgSO4, MgSO4 reactions employed NaATP, read-out: ATP Km
[6] = with AMP + PPi, metal salt replacing MgSO4, MgSO4 reactions employed NaATP, read-out: ATP Km
[7] = with AMP, metal salt replacing MgSO4, MgSO4 reactions employed NaATP, read-out: ATP Km
[8] = with PPi, metal salt replacing MgSO4, MgSO4 reactions employed NaATP, read-out: ATP Km

Sequence of thermostable luciferase (Luc146-1H2) (Q27757 whole entry): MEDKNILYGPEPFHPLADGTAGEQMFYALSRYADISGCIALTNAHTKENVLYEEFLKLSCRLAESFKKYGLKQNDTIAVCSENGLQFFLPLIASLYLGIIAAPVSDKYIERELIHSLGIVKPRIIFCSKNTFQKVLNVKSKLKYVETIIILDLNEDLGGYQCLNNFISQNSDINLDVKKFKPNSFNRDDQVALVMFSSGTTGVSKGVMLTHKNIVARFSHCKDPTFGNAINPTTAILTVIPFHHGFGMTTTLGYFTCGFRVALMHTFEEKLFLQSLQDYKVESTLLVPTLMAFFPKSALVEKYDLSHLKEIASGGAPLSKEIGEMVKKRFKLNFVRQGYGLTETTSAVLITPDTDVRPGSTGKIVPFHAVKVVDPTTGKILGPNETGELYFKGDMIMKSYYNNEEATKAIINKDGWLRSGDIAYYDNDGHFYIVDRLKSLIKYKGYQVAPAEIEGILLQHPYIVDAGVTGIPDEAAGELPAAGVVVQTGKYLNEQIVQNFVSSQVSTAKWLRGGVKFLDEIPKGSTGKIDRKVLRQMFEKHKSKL
Sequence of wild type luciferase from Photinus pyralis (QuantiLum recombinant luciferase) (P08659 whole entry): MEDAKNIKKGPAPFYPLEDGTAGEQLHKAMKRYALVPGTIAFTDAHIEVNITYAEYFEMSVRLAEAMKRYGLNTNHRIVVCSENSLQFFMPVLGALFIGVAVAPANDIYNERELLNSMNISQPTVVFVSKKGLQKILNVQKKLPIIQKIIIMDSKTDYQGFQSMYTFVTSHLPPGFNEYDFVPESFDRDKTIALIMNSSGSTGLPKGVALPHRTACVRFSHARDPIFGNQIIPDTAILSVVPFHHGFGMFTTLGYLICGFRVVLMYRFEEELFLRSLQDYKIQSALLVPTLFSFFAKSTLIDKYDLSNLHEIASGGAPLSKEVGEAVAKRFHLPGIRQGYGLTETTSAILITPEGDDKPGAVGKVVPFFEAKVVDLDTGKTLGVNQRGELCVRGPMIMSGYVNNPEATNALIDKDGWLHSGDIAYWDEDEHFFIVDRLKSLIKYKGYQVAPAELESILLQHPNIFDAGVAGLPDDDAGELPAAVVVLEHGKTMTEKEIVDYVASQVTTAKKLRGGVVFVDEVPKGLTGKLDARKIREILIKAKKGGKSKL

In the case of `Nc1ncnc2c1ncn2[C@@H]1O[C@H](COP(O)(O)=S)[C@@H](O)[C@H]1O` [5′AMPS, adenosine 5′-O-thiomonophosphate], the “increase of the luciferase Km for ATP” value [1] is reported as about 10 fold, the “type of inhibition of luciferase with respect to ATP” value (shortened to “type of inhibition of luciferase”) [1] is reported as “competitive inhibitors” and the Km [1, 3] is reported as 91 µM. It also gave a Km [1, 4] of 1070 µM.

For `Nc1ncnc2c1ncn2[C@@H]1O[C@H](COP(=O)(O)OP(O)(O)=S)[C@@H](O)[C@H]1O` [ADP S, adenosine 5′-[β-thio] diphosphate], the “increase of the luciferase Km for ATP” value [1] was about 10 fold, the “type of inhibition of luciferase” value [1] was “competitive inhibitors” and the Km [1, 3] was 93 µM. It also gave a Km [1, 4] of 581 µM.

In the case of `Nc1ncnc2c1ncn2[C@@H]1O[C@H](COP(=O)(O)O)[C@@H](O)[C@H]1O` [AMP, adenosine monophosphate], the “increase of the luciferase Km for ATP” value [1] is reported as about 10 fold, the “type of inhibition of luciferase” value [1] is reported as “competitive inhibitors” and the Km [1, 3] is reported as 109 µM. For the same compound, the Km ([1]; read-out: ATP Km, 1 mM AMP, ATP range 0-1.67 mM) was 109 µM, the Km ([1]; read-out: Km for ATP, ATP range 0 to 0.09 mM, AMP = 1 mM, PPi = 50 μM, hyperbolic curve fit) was 232 µM and the Km ([1]; read-out: Km for ATP, ATP range 0 to 0.3 mM, AMP = 1 mM, PPi = 50 μM, hyperbolic curve fit) was 243 µM. The Km ([1]; read-out: Km for ATP, ATP range 0 to 0.8 mM, AMP = 1 mM, PPi = 50 μM, hyperbolic curve fit) was 203 µM, the Km ([1]; read-out: Km for ATP, ATP range 0 to 2.5 mM, AMP = 1 mM, PPi = 50 μM, hyperbolic curve fit) was 115 µM and the Km [1, 4] was 1700 µM. The “decrease in Km” value ([2]; 3 mM AMP alone, compared to reactions with no PPi or AMP) was 65%.

Work on `[Ca+2].[Cl-].[Cl-]` [CaCl2] yielded a Km [2, 5] of 1910 µM, a Km [2, 6] of 1040 µM and a Km [2, 7] of 980 µM. For the same compound, the Km [2, 8] was 1450 µM.

With `[Cl-].[Cl-].[Mg+2]` [MgCl2] the Km [2, 5] was 115 µM, the Km [2, 6] was 213 µM and the Km [2, 7] was 56 µM. It also gave a Km [2, 8] of 276 µM.

Work on `O=S(=O)([O-])[O-].[Mg+2]` [MgSO4] yielded a Km [2, 5] of 39 µM, a Km [2, 6] of 93 µM and a Km [2, 7] of 15 µM. The Km [2, 8] was 128 µM.

With `[Cl][Mn][Cl]` [MnCl2] the Km [2, 5] was 120 µM, the Km [2, 6] was 111 µM and the Km [2, 7] was 44 µM. It also gave a Km [2, 8] of 170 µM.

With `[Cl][Ni][Cl]` [NiCl2] the “increase of the Km for ATP” value ([1]; non-Mg metal employed with PPi) was “about 10 fold”, the Km [2, 5] was 906 µM and the Km [2, 6] was 1540 µM. The Km [2, 7] was 1100 µM and the Km [2, 8] was 2420 µM.

With `O=P(O)(O)OP(=O)(O)O` [PPi] the “increase of the luciferase Km for ATP” value [1] was at most 2 fold, the “type of inhibition of luciferase” value [1] was “noncompetitive” and the Km ([1]; 50 μM PPi alone (NT row, no adenosine derivative), ATP 0 to 1.67 mM, read-out: Km) was 4 µM. The Km ([1]; ATP range 0 to 0.09 mM, AMP = 1 mM, PPi = 50 μM, hyperbolic curve fit, read-out: Km for ATP) was 6 µM, the Km ([1]; ATP range 0 to 0.3 mM, AMP = 1 mM, PPi = 50 μM, hyperbolic curve fit, read-out: Km for ATP) was 6 µM and the Km ([1]; ATP range 0 to 0.8 mM, AMP = 1 mM, PPi = 50 μM, hyperbolic curve fit, read-out: Km for ATP) was 6 µM. The Km ([1]; ATP range 0 to 2.5 mM, AMP = 1 mM, PPi = 50 μM, hyperbolic curve fit, read-out: Km for ATP) was 5 µM, the Km ([2]; 0 mM AMP, 50 μM PPi, ATP 0 to 2.5 mM, MgATP, read-out: Km) was 121 µM and the Km ([2]; 0 mM AMP, 100 μM PPi, ATP 0 to 2.5 mM, MgATP, read-out: Km) was 130 µM. The Km ([2]; 0 mM AMP, 200 μM PPi, ATP 0 to 2.5 mM, MgATP, read-out: Km) was 146 µM, the “increase in Km” value ([2]; 200 μM PPi alone, compared to reactions with no PPi or AMP) was 28% and the “type of inhibition of luciferase” value ([2]; native beetle luciferase, in the presence of certain divalent metals) was “competitive”.

For `[Cl-].[Cl-].[Sr+2]` [SrCl2], the Km [2, 5] was 373 µM, the Km [2, 6] was 2650 µM and the Km [2, 7] was 110 µM. The Km [2, 8] was 3290 µM.

`[Cl-].[Cl-].[Zn+2]` [ZnCl2] was tested, and the Km [2, 5] was 63 µM, the Km [2, 6] was 2390 µM and the Km [2, 7] was 585 µM. It also gave a Km [2, 8] of 109 µM.

For `Nc1ncnc2c1ncn2[C@H]1C[C@H](O)[C@@H](COP(=O)(O)OP(=O)(O)OP(=O)(O)O)O1` [dATP, deoxyadenosine triphosphate], the “increase of the luciferase Km for ATP” value [1] was about 10 fold, the “type of inhibition of luciferase” value [1] was “competitive inhibitors” and the Km [1, 3] was 127 µM. The Km [1, 4] was 232 µM.
